Experimental data taken from PMC10974743, “Design, Synthesis, and Biological Evaluation of Novel Phenoxy Acetic Acid Derivatives as Selective COX-2 Inhibitors Coupled with Comprehensive Bio-Pharmacological Inquiry, Histopathological Profiling, and Toxicological Scrutiny” (Molecules, 2024).
“Also recorded” adds a separate entry of the source. Where two headings read alike, the source gives them in different places. Marks after values point to notes of the source that are not given here.

How the values were obtained:
COX-2 = conditions: cited from earlier work
[1] = system: paw tissue, carrageenan paw edema model; assay: Histopathological examination of paws, inflammatory cell infiltration score; type: in vivo, rats; conditions: for Paw histopathological finding: H&E staining, carrageenan paw edema
Method: The histopathological assessments were performed according to the following procedures (Supplementary Materials, page 54). […]
Histopathological examination
Thirty-six rats were separated into six groups of six rats each for histological assessment […]
groupings consisted of a control group, a carrageenan group, two groups for the reference drugs […]
protocols that were utilized in the in-vivo anti-inflammatory activity test were used. After a duration of 5 hours, the animals were euthanized, and their left paws were amputated. The paws were preserved in 10% neutral buffered formalin, trimmed, washed, dehydrated in increasing concentrations of ethyl alcohol, clarified in xylene, and ultimately embedded in paraffin. They were then sliced into 4-6µ thick slices, stained with Hematoxylin and Eosin, and examined under a light microscope. A scoring system was used to evaluate the degree of inflammation, dividing it into six categories ranging from 0 indicating no inflammation to 5 indicating severe inflammation.
Each score corresponded to a certain level of inflammation: 0 for no inflammation, 1 for mild inflammation, 2 for mild to moderate inflammation, 3 for moderate inflammation, 4 for moderate to severe inflammation, and 5 for severe inflammation.

PGE2 = PGE2 content of paw exudate by ELISA, carrageenan paw edema model; type: in vivo, Sprague Dawley rats; conditions: vs carrageenan group
Method: (§1) ELISA assessment assays were conducted as cited (Supplementary Materials, page 53).
(§2) In-vivo anti-inflammatory activity […]
(§3) cervical dislocation. […] The percentage
(§4) Weight of the left paw] ×100.
(§5) Assessment of inflammatory biomarkers using ELISA […]
(§6) content, using enzyme -linked immunosorbent assay (ELISA). The ELISA kits were purchased from CLOUD -CLONE CORP (CCC, USA) (Cat# SEA133Ra) and MyBioSource company (British Columbia, Canada) (Cat# MBS730592) respectively, and the assays were performed following the manufacturer' s instructions. Additionally, the protein content of the exudates was determined using the Bradford method.

[2] = system: carrageenan-induced paw edema; assay: Carrageenan paw edema test (paw thickness, paw weight); conditions: for Paw thickness difference: oral; for Paw thickness difference / Paw Weight Increase: mean ± SD, n = 6; for Paw Weight Increase: right vs left paw, after 5 h
Method: The carrageenan paw edema test was conducted following established procedures as detailed (Supplementary Materials, page 53).
The carrageenan paw edema test was conducted following established procedures. In summary, seventy-two rats were randomly assigned to twelve groups, each comprising six rats.
These groups included normal controls, carrageenan controls (both receiving the vehicle; 1%
Acute inflammation was induced in the right hind paws of all rats one hour after oral administration of the respective compounds or vehicle. This was achieved by injecting a freshly prepared 0.1 mL carrageenan suspension (1% in normal saline) subplantarly into the right hind paw, except for the normal control group, which received a saline injection. Paw thickness was measured hourly (Ct) until the fifth hour (C5) post-carrageenan injection (C0). The hourly increase in paw thickness (paw thickness difference) was calculated by subtracting the initial measurement (C0) from the thickness at each hour (Ct), and the results were presented as the mean increase in paw thickness (mm). To evaluate anti-inflammatory effects, the percentage of inhibition for each standard and test compound was determined using the formula: percentage of inhibition (%) = [(Paw thickness difference of carrageenan group - Paw thickness difference of treated)/ Paw thickness difference of carrageenan group] × 100. […] The paws were then excised and weighed (both left and right). The percentage of weight increase between the left and right paws of each animal was calculated using the equation: Percentage of weight increase = [(Weight of the right paw - Weight of the left paw) / Weight of the left paw] ×100.

[3] = system: nociceptive responses on hot plate; assay: Hot plate latency test (analgesic activity); type: in vivo, rats; conditions: for Hot plate latency period: plate 50 °C, mean ± SD, n = 6
Method: The hot plate latency test was performed according to the following procedures (Supplementary Materials, page 54). […]
In summary, thirty rats
The normal control group received 1% CMC, while the remaining groups were administered their respective reference or test compounds. Each rat was gently positioned on a heated plate set at 50 ◦C. The latency period for nociceptive responses, such as paw licking or jumping off the hot plate, was recorded at 30-, 60-, 90-, and 120 minutes post-administration of the reference drugs, test […]

[4] = Assessment of liver and kidney function (serum ALT, AST, creatinine, urea); type: in vivo, rats; parameters: Urea: unit not given here; conditions: mean ± SD; for Creatinine: n = 6, in mg/dL (unit assumed)
Method: These assessments were conducted following the manufacturer’s instructions (Supplementary Materials, page 55).
In-vivo anti-inflammatory activity
as §3, §4
Assessment of inflammatory biomarkers using ELISA

gastric mucosa = assay: Evaluation of ulcerogenic effects (macroscopic scores and gastric histopathology); conditions: for Gastric mucosa histopathological finding: H&E staining; for Ulcer Number Score / Ulcer Severity Score: mean ± SD; for Ulcer Number Score: n = 6; for Ulcer Severity Score: n = 6, scale 0 to 5
Method: The assessment of ulcerogenic effects was conducted following established procedures [42, 57]
Following the experimental period, the animals were euthanized using pentobarbital sodium (100 mg/kg), and blood was collected via jugular vein exsanguination for later evaluation of liver and kidney function, and subsequently sacrificed by cervical dislocation. […] Following this, the animals' stomachs were removed, inflated, and opened along the greater curvature to evaluate ulcerogenic effects.
B: Ulcer lesion severity scoring system
2.5 More than 10 small ulcers
3 1 marked ulcer plus 0 to 4 small ulcers
3.5 1 marked ulcer plus 5 or more small ulcers
4 2 marked ulcers plus 0 to 4 small ulcers
4.5 2 marked ulcers plus 5 or more small ulcers
5 3 or more marked ulcers
The statistical analysis of the data was conducted using GraphPad Prism 9.5.1 Demo
(GraphPad Software, San Diego, CA). One -way analysis of variance (ANOVA) was utilized to
evaluate differences among the various groups, except for paw edema volume, which un derwent
analysis using two -way ANOVA. Post -hoc analysis was performed using Tukey's multiple
significance set at P < 0.05

TNF-α = TNF-α content of paw exudate by ELISA, carrageenan paw edema model; type: in vivo, Sprague Dawley rats; conditions: vs carrageenan group
Method: as §1, §2, §3, §4, §5, §6

human COX-2 = molecular target: T1, human COX-2 (Homo sapiens, UniProt P35354); assay: In vitro COX-2 inhibition assay (Cayman colorimetric COX inhibitor screening kit); conditions: for IC50: COX-2 IC50, mean ± SEM, n = 3; for SI (COX-2 selectivity index): COX-1 (IC50)/COX-2 (IC50)
T1 sequence (P35354 18-604): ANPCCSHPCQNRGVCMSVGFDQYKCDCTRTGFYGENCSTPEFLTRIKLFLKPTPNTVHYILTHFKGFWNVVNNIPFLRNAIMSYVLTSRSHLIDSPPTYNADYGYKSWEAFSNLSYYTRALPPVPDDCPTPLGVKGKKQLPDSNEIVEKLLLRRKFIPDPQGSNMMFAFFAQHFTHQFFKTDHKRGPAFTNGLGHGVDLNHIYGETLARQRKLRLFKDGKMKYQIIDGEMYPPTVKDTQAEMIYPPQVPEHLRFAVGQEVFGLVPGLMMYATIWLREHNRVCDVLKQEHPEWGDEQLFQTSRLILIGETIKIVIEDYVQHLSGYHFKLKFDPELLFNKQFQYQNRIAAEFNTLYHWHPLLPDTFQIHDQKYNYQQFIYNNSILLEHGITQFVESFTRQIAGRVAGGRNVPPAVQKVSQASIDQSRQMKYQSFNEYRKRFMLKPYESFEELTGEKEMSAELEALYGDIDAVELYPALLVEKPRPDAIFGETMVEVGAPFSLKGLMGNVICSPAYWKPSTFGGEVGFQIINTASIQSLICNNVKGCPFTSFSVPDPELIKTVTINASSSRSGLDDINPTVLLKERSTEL
Method: (§7) The in vitro enzyme assays were performed at the Biochemistry Department, Cairo
(§8) General Hospital, Egypt. Cayman® colorimetric COX (ovine) inhibitor screening assay kit (Item
(§9) enzymes in presence of all newly compounds. Generally, this kit is dependent on the reductive
(§10) reaction of COX. A specific antibody binds to PGH2 produced by COX and is further quantified
(§11) by the ELISA technique as previously reported. After that, the selectivity index (SI) was calculated
as the following equation:
𝐒𝐞𝐥𝐞𝐜𝐭𝐢𝐯𝐢𝐭𝐲 𝐢𝐧𝐝𝐞𝐱 (𝐒𝐈) = 𝐈𝐂₅₀𝐨𝐟 𝐂𝐎𝐗 − 𝟏

ovine COX-1 = molecular target: T2, ovine COX-1 (Ovis aries, UniProt P05979); assay: In vitro COX-1 inhibition assay (Cayman colorimetric COX inhibitor screening kit)
T2 sequence (P05979 25-600): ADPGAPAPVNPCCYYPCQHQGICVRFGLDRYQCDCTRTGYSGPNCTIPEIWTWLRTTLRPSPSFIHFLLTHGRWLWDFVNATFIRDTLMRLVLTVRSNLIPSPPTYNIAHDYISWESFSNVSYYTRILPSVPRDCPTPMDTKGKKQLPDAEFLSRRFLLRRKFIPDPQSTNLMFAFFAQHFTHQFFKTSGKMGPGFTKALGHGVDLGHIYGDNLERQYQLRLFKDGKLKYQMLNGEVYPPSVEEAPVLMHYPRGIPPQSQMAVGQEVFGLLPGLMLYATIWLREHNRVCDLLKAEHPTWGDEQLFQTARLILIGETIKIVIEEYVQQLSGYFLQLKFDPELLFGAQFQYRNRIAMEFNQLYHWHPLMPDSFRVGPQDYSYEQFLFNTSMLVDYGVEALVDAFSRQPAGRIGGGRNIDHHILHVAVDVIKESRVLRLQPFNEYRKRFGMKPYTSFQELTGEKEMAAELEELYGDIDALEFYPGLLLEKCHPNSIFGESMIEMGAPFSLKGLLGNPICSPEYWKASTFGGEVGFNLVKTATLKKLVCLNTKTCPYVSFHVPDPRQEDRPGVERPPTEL
Method: as §7, §8, §9, §10, §11
as the following equation:
𝐒𝐞𝐥𝐞𝐜𝐭𝐢𝐯𝐢𝐭𝐲 𝐢𝐧𝐝𝐞𝐱 (𝐒𝐈) = 𝐈𝐂₅₀𝐨𝐟 𝐂𝐎𝐗 − 𝟏

NS(=O)(=O)c1ccc(-n2nc(C(F)(F)F)cc2-c2ccc(Br)cc2)cc1 [SC-558]
Selectivity for COX-2 over COX-1 (COX-2): 1900 fold

Cc1ccc(-c2cc(C(F)(F)F)nn2-c2ccc(S(N)(=O)=O)cc2)cc1 [Celecoxib, celecoxib, reference compound]
Paw histopathological finding [1]: dermal infiltration by high number of inflammatory cells mainly neutrophils and lymphocytes; also recorded: significant dermal infiltration by a large quantity of inflammatory cells
Reduction of PGE2 exudate content (PGE2): 60.16%
Paw thickness difference ([2]; 1st h after carrageenan): 1.4 ± 0.38 mm
Percentage of inhibition of paw thickness ([2]; 1st h, vs carrageenan group): 29.31%
Paw thickness difference ([2]; 2nd h after carrageenan): 2.36 ± 0.51 mm
Percentage of inhibition of paw thickness ([2]; 2nd h, vs carrageenan group): 28.34%
Paw thickness difference ([2]; 3rd h after carrageenan): 2.83 ± 0.43 mm
Percentage of inhibition of paw thickness ([2]; 3rd h, vs carrageenan group): 33%
Paw thickness difference ([2]; 4th h after carrageenan): 3.01 ± 0.57 mm
Percentage of inhibition of paw thickness ([2]; 4th h, vs carrageenan group): 40.39%
Paw thickness difference ([2]; 5th h after carrageenan): 3.10 ± 0.23 mm
Percentage of inhibition of paw thickness ([2]; 5th h, vs carrageenan group): 41.65%
Paw Weight Increase [2]: 29.95 ± 2.20 ^ab %
Hot plate latency period ([3]; 30 min post-administration): 8.39 ± 0.22 ^a
Hot plate latency period ([3]; 60 min post-administration): 9.95 ± 0.23 ^a
Hot plate latency period ([3]; 90 min post-administration): 11.63 ± 0.60 ^a
Increase in latency period ([3]; 120 min mark): 46.70%
Hot plate latency period ([3]; 120 min post-administration): 13.88 ± 0.41 ^a
ALT ([4]; n = 6): 92.94 ± 5.00 IU/L
AST ([4]; n = 6): 101.23 ± 10.04 IU/L
Urea ([4]; n = 6): 26.28 ± 3.11
Creatinine [4]: 0.73 ± 0.03
Gastric mucosa histopathological finding (gastric mucosa): ulcer formation with eroded gastric mucosa; also recorded: developed ulcers with degraded gastric mucosa
Ulcer Number Score (gastric mucosa): 1.00 ± 0.63
Ulcer Severity Score (gastric mucosa): 0.75 ± 0.52
Reduction of TNF-α exudate content (TNF-α): 63.52%

O=C(O)COc1ccc(Br)cc1C=NNC(=O)Cc1ccccc1 [Compound 7b, 2-(4-Bromo-2-((2-(2-phenylacetyl)hydrazineylidene)methyl)phenoxy)acetic acid]
Paw histopathological finding [1]: dermal infiltration by a moderate number of mononuclear inflammatory cells; also recorded: moderate infiltration of mononuclear inflammatory cells in the dermis
Reduction in inflammatory cell infiltration score ([1]; vs carrageenan group, paw, 5 hours): 62.96%
Reduction of PGE2 exudate content (PGE2): 57.07%
Paw thickness difference ([2]; 1st h after carrageenan): 0.65 ± 0.16 mm
Percentage of inhibition of paw thickness ([2]; 1st h, vs carrageenan group): 67.23%
Paw thickness difference ([2]; 2nd h after carrageenan): 1.08 ± 0.21 mm
Percentage of inhibition of paw thickness ([2]; 2nd h, vs carrageenan group): 67.11%
Paw thickness difference ([2]; 3rd h after carrageenan): 1.64 ± 0.13 mm
Percentage of inhibition of paw thickness ([2]; 3rd h, vs carrageenan group): 61.23%
Paw thickness difference ([2]; 4th h after carrageenan): 1.90 ± 0.19 mm
Percentage of inhibition of paw thickness ([2]; 4th h, vs carrageenan group): 62.42%
Paw thickness difference ([2]; 5th h after carrageenan): 1.95 ± 0.19 mm
Paw Weight Increase [2]: 33.07 ± 1.88 ^ab %
Inhibition of percentage of paw weight increase ([2]; vs carrageenan group): 64.84%
IC50 (human COX-2): 60 ± 10 nM
Increase in latency period ([3]; 30 min mark): 37.67%
Hot plate latency period ([3]; 30 min post-administration): 8.88 ± 0.29 ^ac
Hot plate latency period ([3]; 60 min post-administration): 10.35 ± 0.35 ^ac
Hot plate latency period ([3]; 90 min post-administration): 12.09 ± 0.29 ^ac
Increase in latency period ([3]; 120 min mark): 44.90%
Hot plate latency period ([3]; 120 min post-administration): 13.71 ± 0.31 ^a
ALT ([4]; n = 6): 89.13 ± 8.53 IU/L
AST ([4]; n = 6): 97.59 ± 6.19 IU/L
AST/ALT ([4]; n = 6): 1.10 ± 0.12
Urea ([4]; n = 6): 27.16 ± 1.53
Creatinine [4]: 0.68 ± 0.05
IC50 (ovine COX-1): 5.93 ± 0.12 µM
Gastric mucosa histopathological finding (gastric mucosa): infiltration of gastric mucosa by a few numbers of mononuclear inflammatory cells
Ulcer Number Score (gastric mucosa): 0.67 ± 0.52
Ulcer Severity Score (gastric mucosa): 0.42 ± 0.38
Reduction of TNF-α exudate content (TNF-α): 64.88%

Cc1ccc(-c2ncc(Cl)cc2-c2ccc(S(C)(=O)=O)cc2)cn1 [etoricoxib]
IC50 (COX-2): 5000 nM

O=C(O)COc1ccc(Br)cc1C=NNC(=O)CNC(=O)c1ccccc1 [Compound 13b, 2-(2-((2-(Benzoylglycyl)hydrazineylidene)methyl)-4-bromophenoxy)acetic acid]
SI (COX-2 selectivity index) (human COX-2): 76.38
IC50 (human COX-2): 130 ± 60 nM
IC50 (ovine COX-1): 9.93 ± 0.12 µM
melting point: 248 to 250 °C

CS(=O)(=O)c1ccc(C2=C(c3ccccc3)C(=O)OC2)cc1 [rofecoxib]
IC50 (COX-2): 500 nM

O=C(O)COc1ccccc1/C=N/NC(=O)CNc1ccccc1 [Compound 10a]
SI (COX-2 selectivity index) (human COX-2): 19.00
IC50 (human COX-2): 500 ± 100 nM
IC50 (ovine COX-1): 9.5 ± 0.2 µM
melting point: 221 to 222 °C

O=C(O)COc1ccc(/C=C2\SC(N3N=C(c4ccc(Cl)cc4)CC3c3ccccc3)=NC2=O)cc1 (stereo not shown) [XIV]
IC50 (COX-2; earlier work of the authors): 60 nM

O=C(O)COc1ccccc1C=NNC(=O)Cc1ccccc1 [Compound 7a, 2-(2-((2-(2-Phenylacetyl)hydrazineylidene)methyl)phenoxy)acetic acid]
SI (COX-2 selectivity index) (human COX-2): 76.92
IC50 (human COX-2): 130 ± 60 nM
IC50 (ovine COX-1): 10 ± 0.2 µM
melting point: 214 to 215 °C
